≈ marks a conversion by molar mass, not a printed value. Like-named read-outs stand apart in the source and are kept apart here. *1 amine or outer side, *2 acyl side, *3 side chain or, on linkers, in order; H or OH if unused. Where a SMILES comes first, the peptide text is derived from it. Bridges are numbered along the chain shown (N, C = ends). [ ]: non-standard residue; d: D form. The star is where a group is joined. Propargyl(OCH2CH2)4CO = C#CCOCCOCCOCCOCCC(=O)*; X1 = CCCCCC[C@@H](O)[C@H](N[*:1])C(=O)[*:2]; dCha = N[C@H](CC1CCCCC1)C(=O)O; Dab = NCC[C@H](N)C(=O)O; azaGly = NNC(=O)O
Columns and labels:
[1] = system: Kp 6951 (COL^R); assay type: cell-based, Klebsiella pneumoniae
Procedure: (§1) Briefly, stock solutions of all antibacterial agents were prepared fresh in appropriate solvents (i.e. PBS, pH 7.4, DMSO, DI, etc.). Stock concentrations for drug conjugates were made at 12.5× the highest final assay concentration. All were serially diluted 2-fold, 8 or 12 times in a 96-well PCR plate (VWR cat. no. 83007-374). Bacterial cell suspensions generated from Mueller-Hinton agar (MHA) plate cultures were prepared in 0.85% saline and adjusted to ˜0.1 OD600 nm. […] For the conjugates, 92 μL of each cell suspension in RPMI B were added in the same 96-well plate assay format. […] Compounds were tested against a 14-strain panel comprised of E. coli (Ec), A. baumannii (Ab), P. aeruginosa (Pa), and K. pneumoniae (Kp) that were obtained from ATCC (Ec 25922, Ec 2489, Ab 19606, Pa 27853, Pa PAO1, Kp 43816, Kp 10031), Centers for Disease Control and Prevention (Ec AR0349), BEI Resources (Ab AB5075), Micromyx LLC (Ab 8990, Kp 6951), and Belgian Coordinated Collections of Microorganisms (Pa LES431) or generated in-house (Ec 25922 64X-1). […] E. coli strain ATCC 25922 and P. aeruginosa strain LES431 were run in the presence and absence of 50% heat-inactivated fetal bovine serum (FBS; Sigma, cat. no. F4135-100 mL). Plates were mixed by shaking then incubated at 35° C. overnight (16-20 h).

[2] = system: Kp 43816; assay type: cell-based, Klebsiella pneumoniae
Procedure: as §1

[3] = system: Kp 10031; assay type: cell-based, Klebsiella pneumoniae
Procedure: as §1

[4] = system: Ec 25922 64X-1 (COL^R); assay type: cell-based, Escherichia coli; details: media CA-MHB
Procedure: (§2) Briefly, stock solutions of all antibacterial agents were prepared fresh in appropriate solvents (i.e. PBS, pH 7.4, DMSO, DI, etc.). Stock concentrations for drug conjugates were made at 12.5× the highest final assay concentration. All were serially diluted 2-fold, 8 or 12 times in a 96-well PCR plate (VWR cat. no. 83007-374). Bacterial cell suspensions generated from Mueller-Hinton agar (MHA) plate cultures were prepared in 0.85% saline and adjusted to ˜0.1 OD600 nm. Next, cell suspensions were diluted 1:200 in RPMI containing 5% Luria Broth (LB) to improve bacterial growth (BD Difco, cat. no. 244620) to a concentration of ˜5×10^5 CFU (colony-forming units)/mL. Due to poor solubility in Mueller-Hinton broth media, drug conjugates were evaluated in RPMI 1640 medium (+) L-glutamine, (+) sodium bicarbonate, pH 7.4 (“RPMI B”; Gibco, cat. no. 11875-085) as has been described as a more physiologically-relevant media for susceptibility testing of antibacterial compounds (1). For the conjugates, 92 μL of each cell suspension in RPMI B were added in the same 96-well plate assay format. […] Compounds were tested against a 14-strain panel comprised of E. coli (Ec), A. baumannii (Ab), P. aeruginosa (Pa), and K. pneumoniae (Kp) that were obtained from ATCC (Ec 25922, Ec 2489, Ab 19606, Pa 27853, Pa PAO1, Kp 43816, Kp 10031), Centers for Disease Control and Prevention (Ec AR0349), BEI Resources (Ab AB5075), Micromyx LLC (Ab 8990, Kp 6951), and Belgian Coordinated Collections of Microorganisms (Pa LES431) or generated in-house (Ec 25922 64X-1). […] E. coli strain ATCC 25922 and P. aeruginosa strain LES431 were run in the presence and absence of 50% heat-inactivated fetal bovine serum (FBS; Sigma, cat. no. F4135-100 mL). Plates were mixed by shaking then incubated at 35° C. overnight (16-20 h).

[5] = system: Ec AR0349 (mcr-1, COL^R); assay type: cell-based, Escherichia coli; details: media CA-MHB
Procedure: as §2

[6] = system: E. coli ATCC 25922; assay type: cell-based
Procedure: (§3) Overnight stationary-phase cultures were centrifuged at 3,500×g for 10 min at room temperature and resuspended in 1×PBS to an optical density at 600 nm (OD600) of 0.4 (1×10^8 colony forming units [CFU]/ml) in RPMI with L-glutamine and phenol red (Life Technologies). Bacteria were diluted 1:25 in RPMI ([…]) and 10 ul added to wells of a non-binding 96-well plate (Corning 3641) containing 80 ul of 50% hirudin anti-coagulated blood (complement active) in RPMI. […] MBC was defined as the minimum conjugate concentration required for bacterial clearance (Table 8A and Table 8B). An untreated growth control (40% blood, 0 ug/ml conjugate) was included in all assays as a growth comparator.
(§4) MBC was defined as the minimum compound concentration required for complete bacterial clearance (Table 18).
(§5) In most cases, 2-4 fold improvements in antibacterial activity for the conjugates are observed in the presence of complement active human blood.

[7] = system: A. baumannii AB5075; assay type: cell-based
Procedure: as §3, §4, §5

[8] = system: P. aeruginosa PAO1; assay type: cell-based
Procedure: as §3, §4, §5

[9] = system: Ab AB58705 (COL^R) IpxD, mut. (no LPS); assay type: cell-based, Acinetobacter baumannii; details: media CA-MHB
[10] = system: Pa 27853; assay type: cell-based, Pseudomonas aeruginosa
Procedure: as §1

[11] = system: Pa LES431; assay type: cell-based, Pseudomonas aeruginosa
Procedure: as §1

[12] = system: Pa PAO1; assay type: cell-based, Pseudomonas aeruginosa; details: for MIC: PAO1; for MIC in RPMI PA 01: PAO1, pH 7.4
Procedure: as §1

[13] = system: Ec 25922; assay type: cell-based, Escherichia coli; details: for MIC in RPMI EC 25922: pH 7.4
Procedure: as §1

[14] = system: Ec 2469; assay type: cell-based, Escherichia coli
Procedure: as §1

[15] = system: Sa RN; assay type: cell-based
[16] = system: Ab 19606 (COLhet^R); assay type: cell-based, Acinetobacter baumannii; details: media CA-MHB
Procedure: as §2

[17] = system: Ab AB5075; assay type: cell-based, Acinetobacter baumannii; details: for MIC in RPMI AB 5075: pH 7.4
Procedure: as §1

[18] = system: Ab 8990 (COL^R); assay type: cell-based, Acinetobacter baumannii; details: Ab 8990 (COL^R); media CA-MHB
Procedure: as §1

Row | SMILES | MIC [2] [µg/mL] | MIC [3] [µg/mL] | MIC [4] [µg/mL] | MIC [5] [µg/mL] | MBC in blood EC 25922 [6] [µg/mL] | MBC in blood AB 5075 [7] [µg/mL] | MBC in blood PA 01 [8] [µg/mL] | MIC [9] [µg/mL] | MIC [10] [µg/mL] | MIC [11] [µg/mL] | MIC [12] [µg/mL] | MIC in RPMI PA 01 [12] [µg/mL] | MIC [13] [µg/mL] | MIC in RPMI EC 25922 [13] [µg/mL] | MIC [14] [µg/mL] | MIC [15] [µg/mL] | MIC [16] [µg/mL] | MIC [17] [µg/mL] | MIC in RPMI AB 5075 [17] [µg/mL] | MIC [18] [µg/mL] | further results
1 | C#CCOCCOCCOCCOCCC(=O)Nc1nc(C)c(C(=O)N[C@@H](CCCC)C(=O)C[C@@H](CCN)C(=O)N[C@H](C(=O)NC(CCCN)C(=O)N[C@H]2CCNC(=O)[C@H]([C@@H](C)O)NC(=O)[C@H](CCN)NC(=O)[C@H](CCN)NC(=O)[C@H](CC(C)C)CC(=O)[C@@H](Cc3ccccc3)NC(=O)[C@H](CCN)CC2=O)[C@@H](C)O)s1 (stereo partly drawn) [Int-125] | 1 (≈ 0.637 µM) | 1 (≈ 0.637 µM) | 64 (≈ 40.8 µM) | 16 (≈ 10.2 µM) | 0.05 (≈ 0.0318 µM) | 0.1 (≈ 0.0637 µM) | 0.2 (≈ 0.127 µM) | 32 (≈ 20.4 µM) | 2 (≈ 1.27 µM) | 1 (≈ 0.637 µM) | 2 (≈ 1.27 µM) | 3.76 (≈ 2.4 µM) | 1 (≈ 0.637 µM) | 0.94 (≈ 0.599 µM) | 1 (≈ 0.637 µM) | >128 | 4 (≈ 2.55 µM) | 2 (≈ 1.27 µM) | 1.88 (≈ 1.2 µM) | >128 | MIC ([1]; Kp 6951 (COL^R), media CA-MHB): >128 µg/mL
2 | C#CCOCCOCCOCCOCCC(=O)N[C@@H](CCN)C(=O)N[C@H](C(=O)NNC(=O)N[C@H]1CCNC(=O)[C@H]([C@@H](C)O)NC(=O)[C@H](CCN)NC(=O)[C@H](CCN)NC(=O)[C@H](CC(C)C)NC(=O)[C@@H](CC2CCCCC2)NC(=O)[C@H](CCN)NC1=O)[C@H](O)CCCCCC [Int-115] ({Propargyl(OCH2CH2)4CO}-[Dab][X1][azaGly][Dab][Dab][dCha]L[Dab][Dab]T; lactam 4-C) | 2 (≈ 1.49 µM) | 2 (≈ 1.49 µM) | 64 (≈ 47.8 µM) | 16 (≈ 11.9 µM) | 0.05 (≈ 0.0373 µM) | 0.05 (≈ 0.0373 µM) | >0.2 | 64 (≈ 47.8 µM) | 4 (≈ 2.99 µM) | 4 (≈ 2.99 µM) | 8 (≈ 5.97 µM) | 8.91 (≈ 6.65 µM) | 2 (≈ 1.49 µM) | 2.23 (≈ 1.66 µM) | 2 (≈ 1.49 µM) | >128 | 4 (≈ 2.99 µM) | 2 (≈ 1.49 µM) | 1.11 (≈ 0.829 µM) | >128 | MIC [1]: 128 µg/mL (≈ 95.5 µM)
